Measurements reported in patent US6525001B1, “Substituted pyrimidine and pyridine herbicides” (Mid-American Commercialization Corporation, priority 1997, dated 2003).

Experiments:
Assay type in all cases: in vivo
Set-up in all cases: key: 0 is no effect; 10 is complete control
[1] = test system: bedstraw (Galium aparine); experiment: Test B pre-/postemergence
In short: (§1)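 Compounds in a surfactant-containing, non-phytotoxic solvent blend are applied to freshly planted seed (preemergence) and, concurrently, to seedlings of 2 to 18 cm at 1–4 leaves (postemergence). Plants stay in the greenhouse twelve to sixteen days and are then scored visually from 0 (no effect) to 10 (complete control).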

[2] = test system: cocklebur (Xanthium strumarium); experiment: Test B pre-/postemergence
In short: as §1

corn (Zea mays) = experiment: Test B pre-/postemergence
In short: as §1

[3] = test system: giant foxtail (Setaria faberii); experiment: Test B pre-/postemergence
In short: as §1

[4] = test system: momingglory (Ipomoea hederacea); experiment: Test B pre-/postemergence
In short: as §1

[5] = test system: pigweed (Amaranthus retroflexus); experiment: Test B pre-/postemergence
In short: as §1

rape (Brassica napus) = experiment: Test B pre-/postemergence
In short: as §1

[6] = test system: sugar beet (Beta vulgaris); experiment: Test B pre-/postemergence
In short: as §1

[7] = test system: velvetleaf (Abutilon theophrasti); experiment: Test B pre-/postemergence
In short: as §1

[8] = test system: wheat (Triticum aestivum); experiment: Test B pre-/postemergence
In short: as §1

[9] = test system: bamyardgrass (Echinochloa crus-galli); experiment: Test B flood test
In short: (§2)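 Read-out is a visual response score from 0 (no effect) to 10 (complete control), assigned by comparison with untreated controls. Treatment was applied at the 2-leaf stage, and plants stayed in the greenhouse for twelve to sixteen days before scoring.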

[10] = test system: duck salad (Heteranthera limosa); experiment: Test B flood test
In short: as §2

rice (Oryza sativa) = experiment: Test B flood test
In short: as §2

[11] = test system: smallflower flatsedge (Cyperus difformis); experiment: Test B flood test
In short: as §2

[12] = Rate 62 g/ha, Postemergence (flood test)
[13] = Rate 125 g/ha, Postemergence, flood test
[14] = Rate 250 g/ha, Postemergence (flood test species)
[15] = Rate 500 g/ha, Postemergence (flood test species)

Cc1cnc(-n2ccc(C(F)(F)F)n2)nc1Cc1cccc(C(F)(F)F)c1 [Example 2, 5-methyl-4-[[3-(trifluoromethyl)phenyl]methyl]-2-[3-(trifluoromethyl)-1H-pyrazol-1-yl]pyrimidine]
8: Plant response rating, Cocklebur ([2]; Rate 62 g/ha, Postemergence) | Plant response rating, Cocklebur ([2]; Rate 125 g/ha, Postemergence) | Plant response rating, Cocklebur ([2]; Rate 250 g/ha, Postemergence) | Plant response rating, Morningglory ([4]; Rate 62 g/ha, Postemergence) | Plant response rating, Velvetleaf ([7]; Rate 62 g/ha, Postemergence) | Plant response rating, Velvetleaf ([7]; Rate 250 g/ha, Preemergence) | Plant response rating, S. Flatsedge [11, 14]
9: Plant response rating, Bedstraw ([1]; Rate 62 g/ha, Postemergence) | Plant response rating, Bedstraw ([1]; Rate 125 g/ha, Postemergence) | Plant response rating, Bedstraw ([1]; Rate 250 g/ha, Postemergence) | Plant response rating, Bedstraw ([1]; Rate 500 g/ha, Postemergence) | Plant response rating, Cocklebur ([2]; Rate 500 g/ha, Postemergence) | Plant response rating, Giant foxtail ([3]; Rate 125 g/ha, Postemergence) | Plant response rating, Giant foxtail ([3]; Rate 250 g/ha, Postemergence) | Plant response rating, Morningglory ([4]; Rate 125 g/ha, Postemergence) | Morningglory plant response rating ([4]; Rate 125 g/ha, Preemergence) | Plant response rating, Morningglory ([4]; Rate 250 g/ha, Postemergence) | Plant response rating, Morningglory ([4]; Rate 500 g/ha, Postemergence) | Plant response rating, Redroot pigweed ([5]; Rate 125 g/ha, Postemergence) | Plant response rating, Redroot pigweed ([5]; Rate 250 g/ha, Postemergence) | Plant response rating, Redroot pigweed ([5]; Rate 500 g/ha, Postemergence) | Plant response rating, Rape (rape (Brassica napus); Rate 62 g/ha, Postemergence) | Plant response rating, Rape (rape (Brassica napus); Rate 125 g/ha, Postemergence) | Plant response rating, Rape (rape (Brassica napus); Rate 250 g/ha, Postemergence) | Plant response rating, Sugarbeets ([6]; Rate 62 g/ha, Postemergence) | Plant response rating, Sugarbeets ([6]; Rate 125 g/ha, Postemergence) | Plant response rating, Sugarbeets ([6]; Rate 250 g/ha, Postemergence) | Plant response rating, Sugarbeets ([6]; Rate 500 g/ha, Postemergence) | Plant response rating, Velvetleaf ([7]; Rate 125 g/ha, Postemergence) | Plant response rating, Velvetleaf ([7]; Rate 250 g/ha, Postemergence) | Plant response rating, Velvetleaf ([7]; Rate 500 g/ha, Postemergence) | Plant response rating, S. Flatsedge [11, 15]
5: Plant response rating, Wheat ([8]; Rate 500 g/ha, Postemergence) | Plant response rating, Barnyardgrass [9, 14] | Plant response rating, Rice (rice (Oryza sativa); [14]) | Plant response rating, S. Flatsedge [11, 13]
10: Bedstraw plant response rating ([1]; Rate 62 g/ha, Preemergence) | Bedstraw plant response rating ([1]; Rate 125 g/ha, Preemergence) | Plant response rating, Bedstraw ([1]; Rate 250 g/ha, Preemergence) | Plant response rating, Bedstraw ([1]; Rate 500 g/ha, Preemergence) | Giant foxtail plant response rating ([3]; Rate 62 g/ha, Preemergence) | Giant foxtail plant response rating ([3]; Rate 125 g/ha, Preemergence) | Plant response rating, Giant foxtail ([3]; Rate 250 g/ha, Preemergence) | Plant response rating, Giant foxtail ([3]; Rate 500 g/ha, Postemergence) | Plant response rating, Giant foxtail ([3]; Rate 500 g/ha, Preemergence) | Plant response rating, Morningglory ([4]; Rate 250 g/ha, Preemergence) | Plant response rating, Morningglory ([4]; Rate 500 g/ha, Preemergence) | Redroot pigweed plant response rating ([5]; Rate 62 g/ha, Preemergence) | Redroot pigweed plant response rating ([5]; Rate 125 g/ha, Preemergence) | Plant response rating, Redroot pigweed ([5]; Rate 250 g/ha, Preemergence) | Plant response rating, Redroot pigweed ([5]; Rate 500 g/ha, Preemergence) | Rape plant response rating (rape (Brassica napus); Rate 62 g/ha, Preemergence) | Rape plant response rating (rape (Brassica napus); Rate 125 g/ha, Preemergence) | Plant response rating, Rape (rape (Brassica napus); Rate 250 g/ha, Preemergence) | Plant response rating, Rape (rape (Brassica napus); Rate 500 g/ha, Postemergence) | Plant response rating, Rape (rape (Brassica napus); Rate 500 g/ha, Preemergence) | Sugarbeets plant response rating ([6]; Rate 62 g/ha, Preemergence) | Sugarbeets plant response rating ([6]; Rate 125 g/ha, Preemergence) | Plant response rating, Sugarbeets ([6]; Rate 250 g/ha, Preemergence) | Plant response rating, Sugarbeets ([6]; Rate 500 g/ha, Preemergence) | Plant response rating, Velvetleaf ([7]; Rate 500 g/ha, Preemergence)
2: Plant response rating, Corn (corn (Zea mays); Rate 62 g/ha, Postemergence) | Plant response rating, Corn (corn (Zea mays); Rate 500 g/ha, Preemergence) | Plant response rating, Wheat ([8]; Rate 62 g/ha, Postemergence) | Plant response rating, Wheat ([8]; Rate 125 g/ha, Postemergence) | Wheat plant response rating ([8]; Rate 125 g/ha, Preemergence) | Plant response rating, Ducksalad [10, 14] | Plant response rating, Ducksalad [10, 15]
4: Plant response rating, Corn (corn (Zea mays); Rate 125 g/ha, Postemergence) | Plant response rating, Barnyardgrass [9, 13] | Plant response rating, Rice (rice (Oryza sativa); [13])
7: Plant response rating, Corn (corn (Zea mays); Rate 500 g/ha, Postemergence) | Plant response rating, Giant foxtail ([3]; Rate 62 g/ha, Postemergence) | Morningglory plant response rating ([4]; Rate 62 g/ha, Preemergence) | Plant response rating, Redroot pigweed ([5]; Rate 62 g/ha, Postemergence)
3: Plant response rating, Cocklebur ([2]; Rate 500 g/ha, Preemergence) | Plant response rating, Wheat ([8]; Rate 250 g/ha, Postemergence) | Plant response rating, Wheat ([8]; Rate 250 g/ha, Preemergence) | Plant response rating, Wheat ([8]; Rate 500 g/ha, Preemergence) | Plant response rating, Barnyardgrass [9, 12] | Plant response rating, Rice (rice (Oryza sativa); [12]) | Plant response rating, S. Flatsedge [11, 12]
0: Cocklebur plant response rating ([2]; Rate 62 g/ha, Preemergence) | Corn plant response rating (corn (Zea mays); Rate 62 g/ha, Preemergence) | Plant response rating, Ducksalad [10, 12] | Plant response rating, Ducksalad [10, 13]
6: Plant response rating, Corn (corn (Zea mays); Rate 250 g/ha, Postemergence) | Velvetleaf plant response rating ([7]; Rate 62 g/ha, Preemergence) | Velvetleaf plant response rating ([7]; Rate 125 g/ha, Preemergence) | Plant response rating, Barnyardgrass [9, 15] | Plant response rating, Rice (rice (Oryza sativa); [15])
1: Cocklebur plant response rating ([2]; Rate 125 g/ha, Preemergence) | Plant response rating, Cocklebur ([2]; Rate 250 g/ha, Preemergence) | Corn plant response rating (corn (Zea mays); Rate 125 g/ha, Preemergence) | Plant response rating, Corn (corn (Zea mays); Rate 250 g/ha, Preemergence) | Wheat plant response rating ([8]; Rate 62 g/ha, Preemergence)
